These results are taken from patent US20090005435A1, “Novel Compounds, Pharmaceutical Compositions Containing Same, and Methods of Use for Same” (priority 2004, published 2009).

Assay type in all cases: cell-based
In assay [1] the test system is Enterococcus faecalis (ATCC #29212). Briefly: Broth microdilution MIC, E. faecalis. The protocol: (§1) A broth microdilution assay is used to assess the antimicrobial activity of the compounds. Compounds are tested at twofold serial dilutions, and the concentration that inhibits visible growth (OD600 at 10% of control) is defined as the MIC. Microorganisms tested include Staphylococcus aureus (ATCC #29213), Enterococcus faecalis (ATCC #29212), Pseudomonas aeruginosa (ATCC #27853), and Escherichia coli (ATCC #25922). The assay is performed in two growth media, Mueller Hinton Broth and Trypticase Soy Broth.
(§2) A blood (Tsoy/5% sheep blood) agar plate is inoculated from frozen stocks maintained in T soy broth containing 10% glycerol and incubated overnight at 37° C. Colonies are suspended in sterile broth so that the turbidity matches the turbidity of a 0.5 McFarland standard. The inoculum is diluted 1:10 in sterile broth (Mueller Hinton or Trypticase soy) and 195 ul is dispensed per well of a 96-well plate. […]
(§3) After 24 hours of incubation at 37° C., plates are read at OD600 on a Molecular Devices SpectraMax Plus Spectrophotometer. Average OD600 values are computed using SOFTmax Pro Software (Molecular Devices) and MIC values are determined by linear regression analysis using Prism version 3.02 (Graph Pad Software, San Diego). […]
On the technique in general: Dilution methods test growth across graded concentrations, often in twofold steps.

Assay [2] concerns MCF-7 human breast cancer cells. Briefly: Crystal violet cell growth assay. The following applies: MCF7, MCF-7 cells, read-out: Cr. Violet (IC50). The protocol:
Crystal Violet Cell Growth Assay
The crystal violet assay measure cell growth but not cytotoxicity. This assay employs crystal violet staining of fixed cells in 96-well plates with subsequent solubilization and measurement of OD490 on a spectrophotometer. The OD490 corresponds to cell growth per unit time measured. Cells are treated with the compounds of interest or vehicle controls and IC50 for each compound is computed.
To measure the cytotoxicity of specific compounds against cancer cells, 5×10^4 MCF-7 human breast cancer cells, obtained from the American Type Culture Collection are plated per well in 24 well plates in DMEM medium with 10% fetal bovine serum, penicillin, and streptomycin. Following overnight culture at 37° C. and 5% CO2, the compounds to be tested, dissolved in DMSO, are added to the wells in 1 μl volume at the following concentrations: 50, 40, 30, 20, and 10 μg/ml in triplicate. […]
After 72 hours of incubation, cells are stained with 0.5 ml of Crystal Violet stain (0.5% in 25% methanol) in each well. […] Following transfer of 100 μl from each well to a 96-well plate, plates are read at OD490 on a Molecular Devices SpectraMax Plus Spectrophotometer Average OD490 values are computed using SOFTmax Pro Software (Molecular Devices) and IC50 values are determined by linear regression analysis using Prism version 3.02 (Graph Pad Software, San Diego).

The test system of assay [3] is Pseudomonas aeruginosa (ATCC #27853). Briefly: Broth microdilution MIC, P. aeruginosa. The protocol:
as §1, §2, §3

Assay [4] relates to Staphylococcus aureus (ATCC #29213). Briefly: Broth microdilution MIC, S. aureus. The protocol: as §1, §2, §3

In brackets after ≈: the same amount, converted by molar mass.

Turning to `C=CCC1(CC=C)C(=O)SC(C)(CCCCCCCC)C1=O` (racemic) [Compound 4, 3,3-Diallyl-5-methyl-5-octyl-thiophene-2,4-dione], the MIC was found to be 169 µg/mL (≈ 524 µM) in assay [1] (Enterococcus faecalis, ATCC29212, Trypticase Soy Broth, read-out: EF/Tsoy (MIC)) and 98 µg/mL (≈ 304 µM) in assay [4] (Staphylococcus aureus, ATCC29213, Trypticase Soy Broth, read-out: SA/Tsoy (MIC)). Moreover, the “EF/MH (MIC)” value in assay [1] (Mueller Hinton Broth) is listed as “Neg”. In assay [2], the IC50 amounted to 15 ± 7.7 µg/mL (≈ 46.5 µM). In addition, the “PSAE/MH (MIC)” value in assay [3] (Mueller Hinton Broth) is on record as “Neg”. In addition, in assay [3] (Trypticase Soy Broth), the PSAE/Tsoy result is “Neg”. For the same molecule, the “SA/MH (MIC)” value in assay [4] (Mueller Hinton Broth) is reported as “Neg”.

A word on the IC50: it is the concentration needed to halve the response being measured.
